Assay results reported in the NIST ThermoML archive (doi:10.1016/j.fluid.2019.06.020).
± gives the expanded uncertainty stated by the source.

Conditions: Liquid, Closed cell (Static) method

Structure (SMILES)	vapor or sublimation pressure (273.17 K)	vapor or sublimation pressure (278.17 K)	vapor or sublimation pressure (283.16 K)	vapor or sublimation pressure (288.16 K)	vapor or sublimation pressure (293.15 K)	vapor or sublimation pressure (298.15 K)	vapor or sublimation pressure (303.15 K)	vapor or sublimation pressure (308.15 K)	vapor or sublimation pressure (313.15 K)	vapor or sublimation pressure (318.15 K)	vapor or sublimation pressure (323.15 K)	vapor or sublimation pressure (328.15 K)	vapor or sublimation pressure (333.15 K)	vapor or sublimation pressure (338.14 K)	vapor or sublimation pressure (343.14 K)	vapor or sublimation pressure (348.13 K)	vapor or sublimation pressure (353.13 K)	vapor or sublimation pressure (323.14 K)	vapor or sublimation pressure (328.14 K)	vapor or sublimation pressure (333.14 K)
FCC(F)(F)F [1,1,1,2-tetrafluoroethane]	294.3 ± 5 kPa	351.2 ± 5.1 kPa	415.4 ± 5.1 kPa	488.2 ± 5.1 kPa	570.6 ± 5.1 kPa	664.8 ± 5.2 kPa	769.2 ± 5.2 kPa	886 ± 5.3 kPa	1017.7 ± 5.3 kPa	1158.1 ± 5.4 kPa	1317.4 ± 5.5 kPa	1489.6 ± 5.6 kPa	1679.7 ± 5.8 kPa	1889.1 ± 6 kPa	2118.1 ± 6.2 kPa	2361.2 ± 6.4 kPa	2634.6 ± 6.7 kPa	–	–	–
C=CC(F)(F)F [1,1,1-trifluoro-2-propene]	268.8 ± 5 kPa	318.4 ± 5 kPa	373.6 ± 5.1 kPa	437.6 ± 5.1 kPa	510 ± 5.1 kPa	590.1 ± 5.1 kPa	678.2 ± 5.1 kPa	776.7 ± 5.2 kPa	883.6 ± 5.2 kPa	1001.8 ± 5.3 kPa	–	–	–	1600.5 ± 5.7 kPa	1785.7 ± 5.8 kPa	1986.4 ± 6 kPa	2203.1 ± 6.2 kPa	1130.4 ± 5.4 kPa	1274.9 ± 5.5 kPa	1431.6 ± 5.6 kPa
